For the assay, the target named is T1, Human Polθ polymerase domain (aa1820-2590) (Homo sapiens, UniProt O75417).
T1 construct: Human Polθ polymerase domain (aa1820-2590) was expressed in E. Coli; made in house; host or cells: E. coli
T1 sequence (O75417 1820-2590): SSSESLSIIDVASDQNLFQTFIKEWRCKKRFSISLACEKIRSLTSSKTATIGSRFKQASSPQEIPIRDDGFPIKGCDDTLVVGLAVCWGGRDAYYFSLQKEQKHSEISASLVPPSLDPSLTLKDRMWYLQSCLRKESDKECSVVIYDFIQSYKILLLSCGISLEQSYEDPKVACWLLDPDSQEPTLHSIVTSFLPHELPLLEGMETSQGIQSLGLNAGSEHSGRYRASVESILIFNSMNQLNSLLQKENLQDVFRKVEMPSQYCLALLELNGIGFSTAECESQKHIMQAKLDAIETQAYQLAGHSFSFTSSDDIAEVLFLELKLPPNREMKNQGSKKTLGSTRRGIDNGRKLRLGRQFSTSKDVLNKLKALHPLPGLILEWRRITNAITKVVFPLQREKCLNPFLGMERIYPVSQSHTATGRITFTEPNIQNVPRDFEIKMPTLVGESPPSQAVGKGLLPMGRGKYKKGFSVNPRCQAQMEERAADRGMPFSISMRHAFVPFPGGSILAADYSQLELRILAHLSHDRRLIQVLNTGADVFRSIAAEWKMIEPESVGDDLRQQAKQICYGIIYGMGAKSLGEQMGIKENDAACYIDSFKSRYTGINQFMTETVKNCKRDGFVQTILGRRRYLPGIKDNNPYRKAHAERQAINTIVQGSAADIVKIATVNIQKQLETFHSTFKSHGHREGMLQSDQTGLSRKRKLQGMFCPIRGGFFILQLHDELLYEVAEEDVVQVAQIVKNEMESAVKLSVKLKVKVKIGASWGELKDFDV
Description: Polθ Polymerase Domain WT KI Assay (PicoGreen). The class given is biochemical. To be noted: 100 nM DNA substrate, 0.156 nM Polθ, initial rates vs inhibitor concentration. The method, boiled down:
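E. coli-expressed human Polθ polymerase domain (aa1820-2590) on annealed DNA II Short/Long primer-template (1.2:1), in 25 mM Tris pH 7.5, NaCl, 5% glycerol, 0.01% Triton X-100, 0.1 mg/ml BSA, 1 mM DTT, 1% DMSO. EDTA-quenched timepoints to 180 min, PicoGreen fluorescence. Initial rates vs inhibitor concentration fitted four-parameter for KI.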

SMILES strings stand for the structures. Structures can show the parent of a compound that is named as a salt.

As a reminder, the Ki is a dissociation constant, usually derived from enzyme kinetics or from competition with a known ligand. Turning to `Cc1cc(C(F)(F)F)cc(N2C(=O)C[C@@H]3CN(CC4CCN(C)CC4)c4c(Cl)cccc4N(C)C(=O)[C@H]32)n1` [Example 84, (3aR,11aS)-6-Chloro-10-methyl-1-(6-methyl-4-(trifluoromethyl)pyridin-2-yl)-5-((1-methylpiperidin-4-yl)methyl)-1,3a,4,5,10,11a-hexahydro-2H-benzo[b]pyrrolo[2,3-f][1,4]diazocine-2,11(3H)-dione], the Ki was 2.54 nM. In other words, the single-digit nanomolar range.

`Cc1cc(C(F)(F)F)cc(N2C(=O)C[C@@H]3CN(CCN4CCN(C)C[C@@H]4C)c4c(C)cccc4N(C)C(=O)[C@H]32)n1` [Example 49, (3aR,11aS)-5-(2-((S)-2,4-Dimethylpiperazin-1-yl)ethyl)-6,10-dimethyl-1-(6-methyl-4-(trifluoromethyl)pyridin-2-yl)-1,3a,4,5,10,11a-hexahydro-2H-benzo[b]pyrrolo[2,3-f][1,4]diazocine-2,11(3H)-dione dihydrochloride] came in with a Ki of 0.457 nM. This Ki lies about 5.6-fold lower than the previous one.

Molecule `Cc1cc(C(F)(F)F)cc(N2C(=O)C[C@@H]3CN(CCCN4CCOCC4)c4c(Cl)cccc4N(C)C(=O)[C@H]32)n1` [Example 136, (3aR,11aS)-6-Chloro-10-methyl-1-(6-methyl-4-(trifluoromethyl)pyridin-2-yl)-5-(3-morpholinopropyl)-1,3a,4,5,10,11a-hexahydro-2H-benzo[b]pyrrolo[2,3-f][1,4]diazocine-2,11(3H)-dione hydrochloride] returned a Ki of 0.786 nM.

Molecule `Cc1cc(C(F)(F)F)cc(N2C(=O)C[C@@H]3CN(CC4CCCNC4)c4c(Cl)cccc4N(C)C(=O)[C@H]32)n1` (stereo partly drawn) [Example 110, (3aR,11aS)-6-Chloro-10-methyl-1-(6-methyl-4-(trifluoromethyl)pyridin-2-yl)-5-(piperidin-3-ylmethyl)-1,3a,4,5,10,11a-hexahydro-2H-benzo[b]pyrrolo[2,3-f][1,4]diazocine-2,11(3H)-dione] displayed a Ki of 2.08 nM.

The molecule `Cc1cc(C(F)(F)F)cc(N2C(=O)C[C@@H]3CN(C[C@H]4COCCN4C)c4c(Cl)cccc4N(C)C(=O)[C@H]32)n1` (racemic) [Example 119a, (3aR,11aS)-6-Chloro-10-methyl-1-(6-methyl-4-(trifluoromethyl)pyridin-2-yl)-5-(((S/R)-4-methylmorpholin-3-yl)methyl)-1,3a,4,5,10,11a-hexahydro-2H-benzo[b]pyrrolo[2,3-f][1,4]diazocine-2,11(3H)-dione] returned a Ki of 1.28 nM.

`C=CCN1C[C@H]2CC(=O)N(c3cc(C(F)(F)F)cc(C)n3)[C@@H]2C(=O)N(C)c2cccc(Cl)c21` [Example 5, (3aR,11aS)-5-Allyl-6-chloro-10-methyl-1-(6-methyl-4-(trifluoromethyl)pyridin-2-yl)-1,3a,4,5,10,11a-hexahydro-2H-benzo[b]pyrrolo[2,3-f][1,4]diazocine-2,11(3H)-dione] had a Ki of 1.49 nM.

The molecule `Cc1cc(C(F)(F)F)cc(N2C(=O)C[C@@H]3CN(CCN4CC[C@H](N(C)C)[C@H](F)C4)c4c(C)cccc4N(C)C(=O)[C@H]32)n1` [Example 66, (3aR,11aS)-5-(2-((3R,4S)-4-(Dimethylamino)-3-fluoropiperidin-1-yl)ethyl)-6,10-dimethyl-1-(6-methyl-4-(trifluoromethyl)pyridin-2-yl)-1,3a,4,5,10,11a-hexahydro-2H-benzo[b]pyrrolo[2,3-f][1,4]diazocine-2,11(3H)-dione dihydrochloride] returned a Ki of 0.936 nM. This Ki lies about 1.6-fold lower than the previous one.

Turning to `Cc1cc(C(F)(F)F)cc(N2C(=O)C[C@@H]3CN(CCOCCN(C)C)c4c(C)cccc4N(C)C(=O)[C@H]32)n1` [Example 90, (3aR,11aS)-5-(2-(2-(Dimethylamino)ethoxy)ethyl)-6,10-dimethyl-1-(6-methyl-4-(trifluoromethyl)pyridin-2-yl)-1,3a,4,5,10,11a-hexahydro-2H-benzo[b]pyrrolo[2,3-f][1,4]diazocine-2,11(3H)-dione], affinity was put at a Ki of 0.991 nM.

Turning to `Cc1cc(C(F)(F)F)cc(N2C(=O)C[C@@H]3CN(CCN4CCC(C#N)CC4)c4c(Cl)cccc4N(C)C(=O)[C@H]32)n1` [Example 38, 1-(2-((3aR,11aS)-6-Chloro-10-methyl-1-(6-methyl-4-(trifluoromethyl)pyridin-2-yl)-2,11-dioxo-1,2,3,3a,4,10,11,11a-octahydro-5H-benzo[b]pyrrolo[2,3-f][1,4]diazocin-5-yl)ethyl)piperidine-4-carbonitrile], the Ki turned out to be 1.2 nM.

As to `Cc1cc(C(F)(F)F)cc(N2C(=O)C[C@@H]3CN(CC[C@H]4CCNC4)c4c(Cl)cccc4N(C)C(=O)[C@H]32)n1` [Example 111, (3aR,11aS)-6-Chloro-10-methyl-1-(6-methyl-4-(trifluoromethyl)pyridin-2-yl)-5-(2-((R)-pyrrolidin-3-yl)ethyl)-1,3a,4,5,10,11a-hexahydro-2H-benzo[b]pyrrolo[2,3-f][1,4]diazocine-2,11(3H)-dione hydrochloride], the Ki was 0.619 nM.

`Cc1cc(C(F)(F)F)cc(N2C(=O)C[C@@H]3CN(C[C@H]4CCNC4)c4c(Cl)cccc4N(C)C(=O)[C@H]32)n1` [Example 100, (3aR,11aS)-6-Chloro-10-methyl-1-(6-methyl-4-(trifluoromethyl)pyridin-2-yl)-5-(((S)-pyrrolidin-3-yl)methyl)-1,3a,4,5,10,11a-hexahydro-2H-benzo[b]pyrrolo[2,3-f][1,4]diazocine-2,11(3H)-dione hydrochloride] yielded a Ki of 1.75 nM. This Ki lies about 2.8-fold higher than the previous one.

`Cc1cc(C(F)(F)F)cc(N2C(=O)C[C@@H]3CN(C[C@H]4CCN(C)[C@@H](C)C4)c4c(Cl)cccc4N(C)C(=O)[C@H]32)n1` (single isomer, unassigned) [Example 126a] had a Ki of 1.56 nM.

Take `Cc1cc(C(F)(F)F)cc(N2C(=O)C[C@@H]3CN(CCN4CCN(C)CC4)c4c(Cl)cc(F)cc4N(C)C(=O)[C@H]32)n1` [Example 8, (3aR,11aS)-6-Chloro-8-fluoro-10-methyl-1-(6-methyl-4-(trifluoromethyl)pyridin-2-yl)-5-(2-(4-methylpiperazin-1-yl)ethyl)-1,3a,4,5,10,11a-hexahydro-2H-benzo[b]pyrrolo[2,3-f][1,4]diazocine-2,11(3H)-dione]: the affinity, expressed as Ki, was 4.36 nM.

`Cc1cc(C(F)(F)F)cc(N2C(=O)C[C@@H]3CN(C[C@@H]4CCNC4)c4c(Cl)cccc4N(C)C(=O)[C@H]32)n1` [Example 99, (3aR,11aS)-6-Chloro-10-methyl-1-(6-methyl-4-(trifluoromethyl)pyridin-2-yl)-5-(((R)-pyrrolidin-3-yl)methyl)-1,3a,4,5,10,11a-hexahydro-2H-benzo[b]pyrrolo[2,3-f][1,4]diazocine-2,11(3H)-dione hydrochloride] came in with a Ki of 3.05 nM.

The molecule `Cc1cc(C(F)(F)F)cc(N2C(=O)C[C@@H]3CN(C[C@@H](O)CN4CCOCC4)c4c(Cl)cccc4N(C)C(=O)[C@H]32)n1` (racemic) [Example 133a, (3aR,11aS)-6-chloro-5-((S/R)-2-hydroxy-3-morpholinopropyl)-10-methyl-1-(6-methyl-4-(trifluoromethyl)pyridin-2-yl)-1,3a,4,5,10,11a-hexahydro-2H-benzo[b]pyrrolo[2,3-f][1,4]diazocine-2,11(3H)-dione] gave a Ki of 1.47 nM.

`Cc1cc(C(F)(F)F)cc(N2C(=O)C[C@@H]3CN(Cc4cccnc4)c4c(Cl)cccc4N(C)C(=O)[C@H]32)n1` [Example 95, (3aR,11aS)-6-Chloro-10-methyl-1-(6-methyl-4-(trifluoromethyl)pyridin-2-yl)-5-(pyridin-3-ylmethyl)-1,3a,4,5,10,11a-hexahydro-2H-benzo[b]pyrrolo[2,3-f][1,4]diazocine-2,11(3H)-dione] had a Ki of 3.7 nM.

Molecule `Cc1cc(C(F)(F)F)cc(N2C(=O)C[C@@H]3CN(CCN4CC5(COC5)C4)c4c(Cl)cccc4N(C)C(=O)[C@H]32)n1` [Example 29, (3aR,11aS)-5-(2-(2-Oxa-6-azaspiro[3.3]heptan-6-yl)ethyl)-6-chloro-10-methyl-1-(6-methyl-4-(trifluoromethyl)pyridin-2-yl)-1,3a,4,5,10,11a-hexahydro-2H-benzo[b]pyrrolo[2,3-f][1,4]diazocine-2,11(3H)-dione] had a Ki of 1.42 nM.

For `Cc1cc(C(F)(F)F)cc(N2C(=O)C[C@@H]3CN(CC(C)O)c4c(Cl)cccc4N(C)C(=O)[C@H]32)n1` (single isomer, unassigned) [Example 131b], the Ki worked out at 1.92 nM.

Molecule `Cc1cc(C(F)(F)F)cc(N2C(=O)C[C@@H]3CN(CCN4CCN[C@@H](C)C4)c4c(C)cccc4N(C)C(=O)[C@H]32)n1` [Example 57, (3aR,11aS)-6,10-Dimethyl-1-(6-methyl-4-(trifluoromethyl)pyridin-2-yl)-5-(2-((S)-3-methylpiperazin-1-yl)ethyl)-1,3a,4,5,10,11a-hexahydro-2H-benzo[b]pyrrolo[2,3-f][1,4]diazocine-2,11(3H)-dione dihydrochloride] displayed a Ki of 0.564 nM.

The values are drawn from US20260124214A1, “HETEROCYCLIC COMPOUNDS FOR USE IN THE TREATMENT OF CANCER” (ARTIOS PHARMA LIMITED, priority 2021, published 2026).
